According to patent US9649295B2, “Chemical inhibitors of soluble adenylyl cyclase (sAC)” (Cornell Research Foundation, Inc., priority 2004, dated 2017):
“Also recorded” adds a separate entry of the source. Where no end group is shown, it is not given here.

How the values were obtained:
primary mouse islets = assay: insulin release from isolated mouse islets; assay type: cell-based; settings: 16.7 mM glucose, 30 minutes, 30 μM KH7
Method: After several washes with Hank's Balanced Salt Solution, islets were hand-picked and 15-20 islets were distributed into each well of a 12 well plate to adhere overnight in RPMI-1640 media supplemented with 10 mM HEPES, 5.6 mM glucose, 10% FBS, 2 mM L-glutamine, 1 mM sodium pyruvate, and antibiotics.
Insulin release from isolated islets was performed in 12 well plates. Islets were preincubated in KRB (2.8 mM glucose) for 1 hour followed by incubation for 30 minutes in 2.8 mM glucose KRB in the presence of drug. The same wells were then incubated for an additional 30 minutes in 16.7 mM glucose KRB in the presence of the same drugs. Media was removed, cleared of cells, and insulin was measured.

INS-1E cells [1] = assay: insulin release in INS-1E cells; assay type: cell-based; settings: for effect on glucose-stimulated insulin secretion (GSIS): 30 μM KH7, 30 μM KH7.15, 50 μM 2-hydroxyestradiol, 50 μM 2′5′ddAdo; for insulin release in low glucose: 2.5 mM glucose, 10 nM glucagon
Method: (§1) Briefly, cells (passage 140-150) were plated at 2.5×10^5 cells/well in a 24 well plate and permitted to recover for two days. Cells were glucose starved by incubation for 1 hour in the presence of 2.5 mM glucose KRB medium supplemented with 2 mM sodium bicarbonate, 10 mM Hepes, and 0.1% BSA. After washing, cells were incubated in KRB with either 2.5 mM or 16 mM glucose in the presence of either vehicle control (DMSO or MeOH) or indicated drug. After the indicated time, removed media was cleared of cell debris and secreted insulin was measured by Insulin ELISA kit (Linco Research, St. Charles, Mo., or ALPCO, Windham, N.H.). If cAMP was to be concomitantly measured, cells were pre-treated with IBMX for the final 10 minutes of the glucose starvation and IBMX was included in all subsequent incubations. For the washout experiment, subsequent to initial insulin determination, cells treated with KH7 were placed in fresh KRB (2.5 mM glucose) for an additional hour and insulin release was measured as above in the absence of any added drug. For transferrin recycling, loading of cells with I^125 transferrin was performed during hour incubation in 2.5 mM glucose KRB.

INS-1E cells [2] = assay: transferrin recycling in INS-1E cells; assay type: cell-based; settings: 30 minutes, KH7 30 μM
Method: as §1

cAMP in INS-1E cells = assay: intracellular cAMP in INS-1E cells; assay type: cell-based; settings: for effect on cAMP induced by high glucose: 16 mM glucose, 30 μM KH7, 30 μM KH7.15, 50 μM 2-hydroxyestradiol, 50 μM 2′5′ddAdo; for cAMP generation in low glucose: 2.5 mM glucose, 15 minutes, 10 nM glucagon
Method: as §1

[3] = molecular target: T1, purified recombinant human sACt protein (Homo sapiens, UniProt Q96PN6); assay: in vitro adenylyl cyclase assay on purified recombinant human sACt protein
T1 sequence (Q96PN6 1-469 limits assumed): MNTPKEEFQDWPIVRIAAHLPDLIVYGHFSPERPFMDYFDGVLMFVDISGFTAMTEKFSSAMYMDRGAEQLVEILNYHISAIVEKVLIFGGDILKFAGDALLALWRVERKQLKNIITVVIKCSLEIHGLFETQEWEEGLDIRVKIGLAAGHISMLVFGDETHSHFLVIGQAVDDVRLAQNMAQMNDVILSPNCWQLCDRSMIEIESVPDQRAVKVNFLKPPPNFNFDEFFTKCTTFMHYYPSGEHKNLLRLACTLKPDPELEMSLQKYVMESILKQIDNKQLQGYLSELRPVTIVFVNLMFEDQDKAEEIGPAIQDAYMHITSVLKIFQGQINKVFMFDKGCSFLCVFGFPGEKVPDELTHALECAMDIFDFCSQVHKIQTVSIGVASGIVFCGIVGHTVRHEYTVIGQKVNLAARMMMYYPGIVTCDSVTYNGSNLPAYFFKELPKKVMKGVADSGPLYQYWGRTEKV
Method: (§2) In vitro adenylyl cyclase assays were performed on purified recombinant human sACt protein as previously described in Litvin et al., “Kinetic Properties of “Soluble” Adenylyl Cyclase.

tmACs [4] = assay: adenylyl cyclase activity in forskolin stimulated INS-1E cell lysate; settings: forskolin (10 μM) stimulated INS-1E
Method: as §2

[5] = test system: CREB phosphorylation in isolated nuclei; assay: CREB phosphorylation in isolated HeLa nuclei (P2), Western analysis; assay type: biochemical; settings: for relative intensity of phospho-CREB band normalized to basal: basal 1 U, 1 mM 8-Br cAMP, 40 mM bicarbonate alone or plus 10 μM H-89 or 1 mM 8-Br-RpcAMPs
Method: The resuspended pellet and 60% OptiPrep iodixanol were mixed (30% OptiPrep final) and centrifuged at 10,000 g for 20 min. The supernatant was removed and the nuclei-enriched pellet (P2) was resuspended in TM-2 buffer without detergent.
Reactions were stopped by the addition of 20 μl of SDS sample buffer (CREB phosphorylation) or by being placed into a 100° C. heat block for 3 min (adenylyl cyclase).
For whole cell and isolated nuclei CREB phosphorylation assays, equal cell or nuclear equivalents were separated under reducing conditions using a 10% SDS-PAGE, transferred to a PVDF membrane, and probed for CREB (rabbit polyclonal antiserum; Chemicon, Temecula, Calif.) and phosphorylated CREB (rabbit polyclonal antiserum; Upstate Biotechnology, Temecula, Calif.). HRP-conjugated secondary antibodies were used, and bands were visualized using ECL. Image analysis software (model Fluorchem 8800; Alpha Innotech, San Leandro, Calif.) was used to quantitate Western results. Intensities of phospho-CREB bands were normalized to total CREB.

[6] = test system: CREB phosphorylation in isolated nuclei; assay: phospho-CREB immunocytochemistry of isolated nuclei; assay type: biochemical; settings: 10 min; 40 mM sodium bicarbonate, 1 mM 8-Br cAMP, 10 μM forskolin
Method: Cell Signaling Technologies) overnight at 4° C. Staining was visualized by incubation with goat anti-rabbit Alexa Fluor 488 (Molecular Probes) for 1 h at room temperature, treated with DAPI for 5 min, and washed and mounted with gelvatol/DABCO (Sigma-Aldrich). Fluorescent images were recorded by a digital camera (Hamamatsu, Bridgewater, N.J.) connected to an inverted epifluorescent microscope (Nikon, Melville, N.Y.). Images were taken at the same exposure time and gain, and all photographic manipulations were performed equally. Phospho-CREB-positive nuclei were quantified in multiple fields from each stained slide by a blinded experimenter. […] Nuclei were also treated with DAPI to differentiate intact nuclei from membrane ghosts. DAPI-positive nuclei were scored for phosho-CREB immunofluorescence. Nuclei with detectable staining (FIG. 6A, NaHCO3) were considered positive for CREB phosphorylation, whereas nuclei with no detectable staining (FIG. 6A, Basal) were counted as negative. Multiple microscopic fields were photographed for each condition, and data was combined from three to five separate experiments.

tmACs [7] = assay: cAMP forming activity inside cells stimulated with forskolin; assay type: cell-based; settings: read-out: in vivo IC50 tmAC (FSK)
sAC = molecular target: T2, sAC (Homo sapiens, UniProt Q96PN6); assay: cAMP forming activity inside cells stably overexpressing sAC; assay type: cell-based; settings: read-out: in vivo IC50 sAC (basal)
T2 construct: expressed in transfected cells

[8] = molecular target: T3, purified solubilized version of Type VII tmAC (sol.AC7) (Homo sapiens, UniProt P51828); assay: in vitro cyclase activity of purified solubilized Type VII tmAC; assay type: biochemical; settings: read-out: in vitro IC50 pure sol.AC7
T3 construct: a mixture of purified catalytic domains, C1 and C2, from Type VII tmAC; made in house

[9] = molecular target: T4, purified sperm isoform of sAC protein (pure sAC) (Homo sapiens, UniProt Q96PN6); assay: in vitro cyclase activity of purified sAC protein (Table 1); assay type: biochemical
T4 construct: generated against human 48-kD isoform of sAC (sACt) antigen; made in house
T4 sequence (Q96PN6 1-469 limits assumed): T1 sequence (Q96PN6 1-469 limits assumed)

[10] = molecular target: T5, sperm sAC (sAC in extracts) (UniProt Q96PN6); assay: in vitro cyclase activity in whole cell extracts from cells overexpressing sperm sAC cDNA; assay type: biochemical; settings: unit inferred
T5 construct: whole cell extracts from cells overexpressing sperm sAC cDNA (sAC in extracts)

[11] = molecular target: T6, Type II tmAC (tmAC in extracts) (Homo sapiens, UniProt Q08462); assay: in vitro cyclase activity in extracts of cells overexpressing Type II tmAC; assay type: biochemical; settings: unit inferred
T6 construct: expressed in transfected cells

PfAC = assay: adenylyl cyclase activity in whole cell extract of isolated parasites; assay type: biochemical, Plasmodium falciparum
Plasmodium falciparum = Plasmodium falciparum viability, luciferase assay; assay type: cell-based
Method: . Plasmodium cultures were incubated in the indicated concentrations of KH7 or KH7.15 for 24 hours and viability assessed by luciferase assay (FIG. 16A). […].
Therefore, the effect of sAC inhibitors on P. falciparum viability was tested. […].

T3 sequence (P51828 279-406 limits assumed): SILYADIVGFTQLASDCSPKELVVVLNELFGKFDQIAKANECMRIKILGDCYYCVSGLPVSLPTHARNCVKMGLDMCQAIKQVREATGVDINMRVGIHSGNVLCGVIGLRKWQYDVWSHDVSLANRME
T3 sequence (P51828 879-1023 limits assumed): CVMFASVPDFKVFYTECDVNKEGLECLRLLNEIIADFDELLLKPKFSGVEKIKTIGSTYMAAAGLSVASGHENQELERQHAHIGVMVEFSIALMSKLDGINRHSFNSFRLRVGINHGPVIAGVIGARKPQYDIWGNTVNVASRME
T2 sequence (Q96PN6 whole entry, species assumed): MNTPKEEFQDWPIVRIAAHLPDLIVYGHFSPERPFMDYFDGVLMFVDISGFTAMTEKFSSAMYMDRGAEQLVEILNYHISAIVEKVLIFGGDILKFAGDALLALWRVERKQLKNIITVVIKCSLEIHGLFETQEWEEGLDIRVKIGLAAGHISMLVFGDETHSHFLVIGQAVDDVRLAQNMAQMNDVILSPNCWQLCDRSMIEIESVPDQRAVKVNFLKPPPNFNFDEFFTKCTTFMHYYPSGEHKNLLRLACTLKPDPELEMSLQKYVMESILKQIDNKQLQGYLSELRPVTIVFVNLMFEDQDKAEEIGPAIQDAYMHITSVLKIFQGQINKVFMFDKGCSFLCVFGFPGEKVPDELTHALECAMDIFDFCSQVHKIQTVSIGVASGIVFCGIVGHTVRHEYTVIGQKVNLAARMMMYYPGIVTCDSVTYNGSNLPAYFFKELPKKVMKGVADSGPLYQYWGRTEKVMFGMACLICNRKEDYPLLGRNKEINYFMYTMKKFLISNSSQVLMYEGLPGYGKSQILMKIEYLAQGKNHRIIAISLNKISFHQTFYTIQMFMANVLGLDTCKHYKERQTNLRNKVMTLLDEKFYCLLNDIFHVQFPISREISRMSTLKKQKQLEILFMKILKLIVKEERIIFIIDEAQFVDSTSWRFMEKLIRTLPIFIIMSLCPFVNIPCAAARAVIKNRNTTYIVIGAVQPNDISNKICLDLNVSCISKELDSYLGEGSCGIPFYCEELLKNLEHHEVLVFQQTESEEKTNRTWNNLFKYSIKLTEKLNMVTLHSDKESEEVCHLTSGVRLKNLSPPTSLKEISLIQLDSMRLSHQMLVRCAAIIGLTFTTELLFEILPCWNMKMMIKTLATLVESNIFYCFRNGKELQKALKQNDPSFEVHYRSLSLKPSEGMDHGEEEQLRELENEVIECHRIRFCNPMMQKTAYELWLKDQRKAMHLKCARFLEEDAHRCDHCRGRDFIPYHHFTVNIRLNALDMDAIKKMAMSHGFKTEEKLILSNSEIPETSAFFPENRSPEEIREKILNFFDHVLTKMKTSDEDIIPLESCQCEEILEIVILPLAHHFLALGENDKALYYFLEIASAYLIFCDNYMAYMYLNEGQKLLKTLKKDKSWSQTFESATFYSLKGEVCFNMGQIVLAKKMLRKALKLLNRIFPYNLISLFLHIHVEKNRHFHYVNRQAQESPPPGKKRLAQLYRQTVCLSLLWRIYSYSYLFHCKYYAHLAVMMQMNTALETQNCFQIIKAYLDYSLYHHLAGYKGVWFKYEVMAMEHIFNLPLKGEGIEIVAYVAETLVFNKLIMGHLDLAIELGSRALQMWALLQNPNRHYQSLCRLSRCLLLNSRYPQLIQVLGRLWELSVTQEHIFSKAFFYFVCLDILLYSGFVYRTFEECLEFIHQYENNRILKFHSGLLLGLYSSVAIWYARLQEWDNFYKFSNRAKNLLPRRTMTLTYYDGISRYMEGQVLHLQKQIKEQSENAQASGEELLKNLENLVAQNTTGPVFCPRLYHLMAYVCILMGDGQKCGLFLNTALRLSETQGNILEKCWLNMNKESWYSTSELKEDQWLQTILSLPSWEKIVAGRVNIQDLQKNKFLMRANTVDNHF
T6 sequence (Q08462 whole entry): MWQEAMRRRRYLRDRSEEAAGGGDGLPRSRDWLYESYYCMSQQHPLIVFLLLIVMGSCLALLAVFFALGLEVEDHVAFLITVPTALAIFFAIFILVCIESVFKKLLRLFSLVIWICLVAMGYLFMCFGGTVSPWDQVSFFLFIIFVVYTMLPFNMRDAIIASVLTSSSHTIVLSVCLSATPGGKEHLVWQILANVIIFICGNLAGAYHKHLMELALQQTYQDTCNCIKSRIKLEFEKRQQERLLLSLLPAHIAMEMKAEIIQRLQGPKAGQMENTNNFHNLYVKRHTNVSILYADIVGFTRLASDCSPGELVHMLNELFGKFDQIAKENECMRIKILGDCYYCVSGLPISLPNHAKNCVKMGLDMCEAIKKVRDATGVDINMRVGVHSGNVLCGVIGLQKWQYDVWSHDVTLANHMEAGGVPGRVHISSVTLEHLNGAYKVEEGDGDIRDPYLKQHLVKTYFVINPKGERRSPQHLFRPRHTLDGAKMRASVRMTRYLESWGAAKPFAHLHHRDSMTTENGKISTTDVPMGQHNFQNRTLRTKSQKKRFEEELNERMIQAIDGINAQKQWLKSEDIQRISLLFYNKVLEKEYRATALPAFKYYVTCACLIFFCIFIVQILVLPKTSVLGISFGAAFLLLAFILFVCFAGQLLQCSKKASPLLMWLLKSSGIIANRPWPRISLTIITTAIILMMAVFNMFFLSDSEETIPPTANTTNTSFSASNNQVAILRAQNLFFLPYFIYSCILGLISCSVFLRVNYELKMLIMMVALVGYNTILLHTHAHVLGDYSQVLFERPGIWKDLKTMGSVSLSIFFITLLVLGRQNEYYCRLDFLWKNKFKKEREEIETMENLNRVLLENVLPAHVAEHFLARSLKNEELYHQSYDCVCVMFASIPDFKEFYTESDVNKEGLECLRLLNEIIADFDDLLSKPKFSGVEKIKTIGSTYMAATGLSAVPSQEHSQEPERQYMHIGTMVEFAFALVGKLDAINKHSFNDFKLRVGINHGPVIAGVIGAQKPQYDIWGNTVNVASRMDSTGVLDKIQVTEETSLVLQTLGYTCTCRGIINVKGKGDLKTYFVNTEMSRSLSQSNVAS

Compound: C[C@]12CC[C@@H]3c4cc(O)c(O)cc4CC[C@H]3[C@@H]1CC[C@@H]2O [2-hydroxyestradiol, reference compound]
- effect on insulin release induced by high glucose in islets (primary mouse islets): inhibited insulin release induced by high glucose
- effect on glucose-stimulated insulin secretion (GSIS) (INS-1E cells [1]; 16 mM glucose): completely inhibited GSIS
- effect on transferrin recycling (INS-1E cells [2]): unaffected
- effect on cAMP induced by high glucose (cAMP in INS-1E cells): blocked the cAMP induced by the presence of high glucose

Compound: C[C@H]1O[C@@H](n2cnc3c(N)ncnc32)C[C@@H]1O [2′5′ddAdo, 2′5′ dideoxyadenosine]
- effect on sAC ([3]; bicarbonate/calcium stimulated pure sAC, concentrations up to 300 μM): did not significantly affect sAC; also recorded: inert towards sAC
- effect on tmACs (tmACs [4]): potent inhibitor of tmACs
- effect on cAMP induced by high glucose (cAMP in INS-1E cells): partially decreased glucose-induced cAMP generation

Compound: Nc1ncnc2c1nc(Br)n2[C@@H]1O[C@@H]2COP(=O)(O)O[C@H]2[C@H]1O [8-Br-cAMP]
- relative intensity of phospho-CREB band normalized to basal [5]: 30 U
- increase in CREB phosphorylation ([5]; isolated nuclei, Western): 30 fold
- percentage of phospho-CREB-positive nuclei relative to basal [6]: at least a twofold rise

Compound: CC(C)Cn1c(=O)n(C)c(=O)c2[nH]cnc21 [IBMX, reference compound]
- restoration of GSIS in the presence of KH7 (INS-1E cells [1]; 0.5 mM IBMX, 30 μM KH7): did not restore GSIS in the presence of KH7 inhibition
- enhancement of GSIS (INS-1E cells [1]; 0.5 mM IBMX, 16 mM glucose, 15 minutes): at least 2 fold

Compound: CCCCOc1ccc(C2=N/C(=C\C(Br)=C\c3ccccc3)C(=O)O2)cc1 [KH1]
- IC50 (tmACs [7]): > 500 µM
- IC50 (sAC): > 500 µM
- IC50 [8]: > 200 µM
- IC50 ([9]; μM): 23 µM

Compound: COc1ccc(/C=C2\C(=O)N(c3nc(-c4ccc(Cl)cc4)cs3)N=C2c2ccccc2)cc1OC [KH2]
- IC50 (tmACs [7]): > 500 µM
- IC50 (sAC): > 500 µM
- IC50 [8]: > 400 µM
- IC50 [10]: > 100 µM
- IC50 ([9]; μM): 2 µM
- IC50 [11]: > 100 µM

Compound: Cc1ccc(C)c(N2C(=O)/C(=C/c3ccc(Cl)cc3)C=C2c2ccccc2)c1 [KH3]
- IC50 (tmACs [7]): > 500 µM
- IC50 (sAC): > 500 µM
- IC50 [8]: > 500 µM
- IC50 [10]: > 100 µM
- IC50 ([9]; μM): 8 µM
- IC50 [11]: > 100 µM

Compound: Cc1ccccc1N1C(=O)/C(=C/c2ccc(-c3ccc(Cl)c(Cl)c3)o2)C=C1c1ccccc1 [KH4]
- IC50 (tmACs [7]): > 500 µM
- IC50 (sAC): > 500 µM
- IC50 [8]: > 27 µM
- IC50 [10]: > 100 µM
- IC50 ([9]; μM): 6 µM
- IC50 [11]: > 100 µM

Compound: COc1ccc(Br)cc1/C=N/NC(=O)CSc1nc2ccccc2[nH]1 [KH7.05]
- IC50 (tmACs [7]): > 200 µM
- IC50 (sAC): 30 µM
- IC50 ([9]; unit inferred): ~30 µM

Compound: O=C(CSc1nc2ccccc2[nH]1)N/N=C/c1c(F)cccc1Cl [KH7.06]
- IC50 ([9]; unit inferred): ~30 µM

Compound: O=C(CSc1nc2ccccc2[nH]1)N/N=C/c1cc(Br)ccc1O [KH7.07]
- IC50 (tmACs [7]): > 200 µM
- IC50 (sAC): 30 µM
- IC50 ([9]; μM): 30 µM

Compound: Cc1ccsc1/C=N/NC(=O)CSc1nc2ccccc2n1Cc1ccccc1 [KH7.10]
- IC50 ([9]; unit inferred): 80 µM

Compound: CCn1c(SCC(=O)N/N=C/c2cc(Br)ccc2O)nc2ccccc21 [KH7.13]
- IC50 ([9]; unit inferred): 75 µM

Compound: COc1cc(/C=N/NC(=O)CSc2nc3ccccc3[nH]2)ccc1O [KH7.15]
- dose required to inhibit PfAC activity (PfAC): ≥ 100 µM
- lower affinity for inhibiting PfAC activity relative to KH7 (PfAC): 10 fold
- effect on cyclase activity of purified sAC ([3]; bicarbonate (40 mM) and calcium (0.5 mM)): inert
- effect on tmACs (tmACs [4]): inert
- dose required to kill parasites (Plasmodium falciparum): ≥ 100 µM
- lower affinity for killing P. falciparum relative to KH7 (Plasmodium falciparum): 10 fold
- effect on glucose-stimulated insulin secretion (GSIS) (INS-1E cells [1]; 16 mM glucose): did not affect insulin secretion
- effect on cAMP induced by high glucose (cAMP in INS-1E cells): not

Compound: Nc1ncnc2c1ncn2[C@@H]1O[C@@H]2CO[P@@](O)(=S)O[C@H]2[C@H]1O [RpcAMPs]
- relative intensity of phospho-CREB band normalized to basal [5]: 8 U
- reduction of CREB phosphorylation induced by bicarbonate ([5]; isolated nuclei, 40 mM bicarbonate): 70%

Compound: GLP-1: hormone stimulating tmACs (HAEGTFTSDVSSYLEGQAAKEFIAWLVKGR; ends and bridges not checked; UniProt P01275 98-127, looked up) [reference compound]
- insulin release in low glucose (INS-1E cells [1]; 15 minutes): no significant increase in insulin release
- cAMP generation in low glucose (cAMP in INS-1E cells): three fold increase in cAMP generation

Compound: glucagon: hormone stimulating tmACs [reference compound]
- insulin release in low glucose (INS-1E cells [1]; 15 minutes): no significant increase in insulin release
- cAMP generation in low glucose (cAMP in INS-1E cells): three fold increase in cAMP generation
